Assay results as given in article PMC9005971, “Discovery of 2-(4-Acrylamidophenyl)-Quinoline-4-Carboxylic Acid Derivatives as Potent SIRT3 Inhibitors” (Frontiers in Chemistry, 2022).

Columns and labels:
MV4-11 cells = experiment: In vitro antiproliferative CCK-8 assay, MV4-11; format: cell-based; conditions: Homo sapiens, 72 h, read-out: IC50 growth inhibition MV4-11
Method: (§1) The proliferation of THP-1, MOLM-13, SEM and MV4-11 cells was tested by CCK-8 assay. Briefly, cells were seeded in 96-well plate with about 5 × 10^3 cells in each well. The cells were treated with P6 or Ara-C (0–10 µM) after 24 h of incubation. CCK-8 reagent ([…]) was added to each well after 72 h of incubation, and cells were incubated at 37°C for 4 h. The light absorbance at 450 nm was measured by using an Opsys microplate reader (Dynex Technologirs, Chantilly, VA, United States). Results are illustrated as percent of cell viability normalized to DMSO-treated control cells.

[1] = test system: THP-1, MOLM-13, SEM and MV4-11 cells; experiment: Colony formation assay, MLLr leukemic cells; format: cell-based; conditions: 0.2–2.0 µM, 12 days
Method: THP-1, MOLM-13, SEM and MV4-11 cells were cultured with P6 (0–2.0 µM) in 2.6% methycellulose medium containing 10% FBS in a 24-well flat-bottomed plate for 12 days ([Qu et al., 2021]). The number of individual colonies consisting of more than approximately 50 cells was counted by a CX43 microscope (Olympus, Shinjuku-ku, Tokyo, Japan) with an Olympus EP50 camera (Olympus, Shinjuku-ku, Tokyo, Japan).

SIRT3 = molecular target: T1, SIRT3 (Homo sapiens, UniProt Q9NTG7); experiment: SIRT3 enzyme inhibitory assay (fluorescence); format: biochemical; conditions: for activity at 0.01 µM / activity at 0.033 µM / activity at 0.1 µM / activity at 0.333 µM / activity at 1 µM / activity at 3.3 µM / activity at 10 µM / activity at 33 µM / activity at 100 µM: SIRT3 enzyme activity; for activity at 0.01 µM: 10 nM; for activity at 0.033 µM: 33 nM; for activity at 0.1 µM: 100 nM; for activity at 0.333 µM: 333 nM
T1 sequence (Q9NTG7 1-399): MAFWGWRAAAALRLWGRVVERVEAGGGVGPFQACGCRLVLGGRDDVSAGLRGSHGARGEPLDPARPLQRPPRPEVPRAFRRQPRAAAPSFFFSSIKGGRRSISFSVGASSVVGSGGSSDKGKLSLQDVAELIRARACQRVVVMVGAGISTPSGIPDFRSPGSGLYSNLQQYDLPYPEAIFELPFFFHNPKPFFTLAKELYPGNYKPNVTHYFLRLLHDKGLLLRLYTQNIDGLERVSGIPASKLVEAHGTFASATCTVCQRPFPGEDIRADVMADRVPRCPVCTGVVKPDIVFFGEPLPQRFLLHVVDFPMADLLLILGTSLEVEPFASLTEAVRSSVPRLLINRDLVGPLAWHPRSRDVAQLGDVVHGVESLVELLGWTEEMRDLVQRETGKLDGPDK
Method: All of the enzymatic reactions were conducted at 37°C for 30 min. […] The compounds were diluted in 10% DMSO and 5 ul of the dilution was added to each reaction mixture (50 ul). The assay was performed by quantitating the amount of fluorescent product generated from the enzyme reaction. Fluorescence intensity is then analyzed at excitation wavelength of 350–360 nm and emission wavelength of 450–460 nm on a SpectraMax M5 microtiter plate reader. The IC50 values were calculated using Prism GraphPad software.

THP-1 cells = experiment: In vitro antiproliferative CCK-8 assay, THP-1; format: cell-based; conditions: Homo sapiens
Method: as §1

[2] = test system: THP-1, MOLM-13, SEM and MV4-11 cells; experiment: Cell morphology / differentiation (Wright-Giemsa staining); format: cell-based; conditions: 72 h
Method: THP-1, MOLM-13, SEM and MV4-11 cells were incubated with P6 or Ara-C for 72 h and then collected. Slides were made by cytospin and subsequently air dried. The cells were stained with Wright-Giemsa and observed for morphological features using a light microscope.

[3] = test system: THP-1, MOLM-13, SEM and MV4-11 cells; experiment: Cell cycle analysis, MLLr leukemic cells; format: cell-based; conditions: 0.9–2.0 µM
Method: THP-1, MOLM-13, SEM and MV4-11 cells were incubated with 1.0 (THP-1, MOLM-13 cells) and 2.0 (SEM and MV4-11 cells) µM of P6 for 72 h. After treatment, cells were collected and fixed with 70% pre-cold ethanol in PBS and stored at −20°C for at least 24 h. Then the cells were stained with […] RNase A for 30 min in the dark at room temperature. Finally, flow cytometry was used to detect the percentage of cells in the sub-G1, G0/G1, S, and G2/M phases with a Beckman Coulter DxFLEX flow cytometer (Florida, Miami, USA). The data was analyzed and fitted by ModFit software.

Compound: C=CC(=O)Nc1ccc(-c2cc(C(=O)N3CCN(c4ccccc4F)CC3)c3ccccc3n2)cc1 [Compound P6, N-(4-{4-[4-(2-Fluoro-phenyl)-piperazine-1-carbonyl]-quinolin-2-yl}-phenyl)-acrylamide]
- IC50 (MV4-11 cells): 1900 nM
- effect on number of colonies [1]: significantly reduce the number of colonies with a dose dependent manner
- activity at 0.01 µM (SIRT3; Repeat1): 101%
- activity at 0.01 µM (SIRT3; Repeat2): 99%
- activity at 0.033 µM (SIRT3; Repeat1): 98%
- activity at 0.033 µM (SIRT3; Repeat2): 97%
- activity at 0.1 µM (SIRT3; Repeat1): 104%
- activity at 0.1 µM (SIRT3; Repeat2): 95%
- activity at 0.333 µM (SIRT3; Repeat1): 95%
- activity at 0.333 µM (SIRT3; Repeat2): 88%
- activity at 1 µM (SIRT3; Repeat1): 76%
- activity at 1 µM (SIRT3; Repeat2): 74%
- activity at 3.3 µM (SIRT3; Repeat1): 61%
- activity at 3.3 µM (SIRT3; Repeat2): 59%
- activity at 10 µM (SIRT3; Repeat1): 38%
- activity at 10 µM (SIRT3; Repeat2): 38%
- activity at 33 µM (SIRT3; Repeat1): 33%
- activity at 33 µM (SIRT3; Repeat2): 31%
- activity at 100 µM (SIRT3; Repeat1): 24%
- activity at 100 µM (SIRT3; Repeat2): 21%
- inhibition at 10 µM (SIRT3; dose of 10 μM, mean of three experiments, read-out: SIRT3 percentage inhibitory rate): 65.2 ± 3.26%
- selectivity among SIRT1-3 (SIRT3; enzyme selectivity test, SIRT3 vs SIRT1 and SIRT2): can selectively inhibit SIRT3
- IC50 (SIRT3; mean of two experiments): 7200 ± 500 nM
- IC50 (THP-1 cells; 72 h, CCK-8, read-out: IC50 growth inhibition THP-1): 870 nM
- inhibition at 1 µM (THP-1 cells; dose of 1 μM, mean of three experiments, read-out: THP-1 percentage inhibitory rate): 85.9 ± 3.42%
- cell differentiation / morphology [2]: induced the cell differentiation accompanied with morphological changes
- effect on cell cycle progression [3]: capable of causing MLLr leukemic cell cycle arrest at G0/G1 phase
